The values below come from patent publication US7585826B2, “Compositions counteracting pesticides and malodorants” (priority 2007, dated 2009).

Data set [1] in a line: Decomposition rate of 17 pesticides mixed with the composition prepared in Example 1 (HPLC), against tap water or 10% brine controls. As to conditions: 10 ppm pesticide, composition of Example 1, 5 min; among seventeen pesticides. It is filed as physicochemical. As to the method:
The above-prepared composition was tested to decompose 17 pesticides, i.e., Diazinon, Terbufos, Acephate, Glyphosate, Phosmet, Mevinphos, Benomyl, Metalaxyl, Pyrnetrozine, Methomyl, Fenobucard, Carbendazim, Pencycuron, Hexaconazole, Thiophanate-methyl, Cartap, and Thiabendazole. The decomposition rates were measured as follows:
Each pesticide was dissolved in tap water at a concentration of 10 ppm. 10 mL pesticide solution was mixed with 10 mL of the composition prepared in Example 1 for 5 min. 10 mL pesticide solution was also mixed with 10 mL tap water or 10 mL 10% brine solution to prepare control solution. The pesticide concentration of each tested reaction solution was measured by high performance liquid chromatography.

Data set [2] in a line: Time-course decomposition of pesticides reacted with the composition prepared in Example 1 (HPLC). The format is physicochemical. As to conditions: 7.5 mL of 10 ppm pesticide + 2.5 mL composition of Example 1; after 5.0 min reaction time. As to the method:
7.5 mL of a pesticide solution, containing 10 ppm Terbufos, Diazinon, Hexaconazole, or Fenobucard, was allowed to react with 2.5 mL of the composition prepared in Example 1 for 1.0 min, 3.0 min, and 5.0 min, respectively. HPLC was used to determine the concentrations of the pesticide.

Take `COP(=O)(NC(C)=O)SC` (stereo not shown) [Acephate]: in data set [1], the “decomposition rate compared with the other pesticides tested” value is “higher rates than the others”.

Turning to `CCOP(=S)(OCC)Oc1cc(C)nc(C(C)C)n1` [Diazinon], the pesticide decomposed in data set [2] stood at 87%.

For `CCC(C)c1ccccc1OC(=O)NC` (stereo not shown) [Fenobucard], in data set [2], the pesticide decomposed was found to be 76%.

Regarding `CCCCC(O)(Cn1cncn1)c1ccc(Cl)cc1Cl` (stereo not shown) [Hexaconazole], the pesticide decomposed in data set [2] is listed as 85%. The “decomposition rate compared with the other pesticides tested” value in data set [1] is “higher rates than the others”.

In the case of `CCOP(=S)(OCC)SCSC(C)(C)C` [Terbufos], the pesticide decomposed in data set [2] amounted to 91%. Also, in data set [1], the “decomposition rate compared with the other pesticides tested” value is reported as “higher rates than the others”.
